Literature values in patent US20240000727A1, “STABLE COATED SOLID PHARMACEUTICAL COMPOSITION OF AN OPIOID ANALGESIC AND AN ANTI-EPILEPTIC FOR PAIN” (LABORATORIOS SILANES S.A. DE C.V., priority 2020, published 2024).

Tested on: moderate to severe postoperative pain
Settings: intravenous or intramuscular; patients with moderate to severe postoperative pain

Q: For COc1cccc([C@@]2(O)CCCC[C@@H]2CN(C)C)c1 [tramadol, (1R,2R)-2-[(dimethylamino)methyl]-1-(3-methoxyphenyl)cyclohexan-1-ol], which “Potency relative to nalbuphine” value is on record?
A: one-fifth as potent

Q: And the “Potency relative to pethidine (meperidine)” value?
A: equivalent
